Measurements taken from US20220332700A1, “NOVEL APOPTOSIS SIGNAL-REGULATING KINASE 1 INHIBITORS” (MANKIND PHARMA LTD, priority 2019, published 2022).

Target: T1, recombinant ASK1 (Homo sapiens, UniProt Q99683)
T1 construct: purchased Carna Biosciences
Experiment: ASK1 Biochemical Assay (HTRF KinEASE-STK S3)
Details: ATP 100 μM; read-out: Biochemical Assay IC50
Experimental: ASK1 biochemical assay was standardized using recombinant ASK1 (Carna Biosciences), substrate and detection reagents from Cisbio HRTF KinEASE-STK S3 kit. Enzyme concentration, ATP, biotinylated STK substrate and STK antibodies were titrated for enzyme assay. Assay was carried out in ASK1 kinase buffer, 10 mM MOPS pH-7, 10 mM Mg-acetate, 1 mM DTT, 0.025% NP40, 1.5% glycerol and 0.05% BSA. DMSO was used as vehicle control with a final concentration of 1%. A 5 ng of ASK1 enzyme was incubated with compound for 1 hour at 23° C. on a shaker at 100rpm. ATP and biotin substrate was added at a final concentration of 100 μM and 1 μM and incubated for 3 hours at 23° C. on a shaker at 100rpm. […] Delta F ratios were calculated from data obtained at excitation (337 nm) and emission wavelengths (665 nm and 620-10 nm). Substrate blank values was considered as negative control. Values from negative control was substrated from vehicle control and compound treated wells. Enzyme inhibition by compounds were calculated from vehicle controls, which represent uninterrupted enzyme's activity.

T1 sequence (Q99683 654-971 limits assumed): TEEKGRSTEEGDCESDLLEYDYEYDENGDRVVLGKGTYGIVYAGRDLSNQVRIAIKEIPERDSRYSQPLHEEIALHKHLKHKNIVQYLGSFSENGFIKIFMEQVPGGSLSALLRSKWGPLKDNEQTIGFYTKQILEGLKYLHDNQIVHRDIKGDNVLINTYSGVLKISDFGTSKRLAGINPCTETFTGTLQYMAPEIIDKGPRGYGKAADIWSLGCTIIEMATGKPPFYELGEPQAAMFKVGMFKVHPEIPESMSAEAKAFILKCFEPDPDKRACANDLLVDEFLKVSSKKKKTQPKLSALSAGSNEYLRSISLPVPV

IC50 [nM]	Structure (SMILES)
1300	CC(C)n1cnnc1-c1cccc(N2CCN(c3cc(-n4ccnc4)ncn3)C2=O)n1 [Example 1001, 1-(6-(1H-imidazol-1-yl)pyrimidin-4-yl)-3-(6-(4-isopropyl-4H-1,2,4-triazol-3-yl)pyridin-2-yl)imidazolidin-2-one]
> 1000	CC(C)n1cnnc1-c1cccc(N2CCN(c3cc(-n4ccnc4)ccn3)C2=O)n1 [Example 1003, 1-(4-(1H-imidazol-1-yl)pyridin-2-yl)-3-(6-(4-isopropyl-4H-1,2,4-triazol-3-yl)pyridin-2-yl)imidazolidin-2-one]
> 1000	CC(C)n1cnnc1-c1cccc(-n2ccn(-c3cc(-n4ccnc4)ncn3)c2=O)n1 [Example 1004, 1-(6-(1H-imidazol-1-yl)pyrimidin-4-yl)-3-(6-(4-isopropyl-4H-1,2,4-triazol-3-yl)pyridin-2-yl)-1H-imidazol-2(3H)-one]
< 1000	CC(C)n1cnnc1-c1cccc(N2CCN(c3cccc(-n4cnc(C5CC5)c4)c3)C2=O)n1 [Example 1005, 1-(3-(4-cyclopropyl-1H-imidazol-1-yl)phenyl)-3-(6-(4-isopropyl-4H-1,2,4-triazol-3-yl)pyridin-2-yl)imidazolidin-2-one]
< 1000	CC(C)n1cnnc1-c1cccc(-n2ccn(-c3cccc(-n4ccnc4)c3)c2=O)n1 [Example 1006, 1-(3-(1H-imidazol-1-yl)phenyl)-3-(6-(4-isopropyl-4H-1,2,4-triazol-3-yl)pyridin-2-yl)-1H-imidazol-2(3H)-one]
> 1000	CC(C)n1cnnc1-c1cccc(N2CCN(c3cccc(-n4ccnc4)c3F)C2=O)n1 [Example 1008, 1-(2-fluoro-3-(1H-imidazol-1-yl)phenyl)-3-(6-(4-isopropyl-4H-1,2,4-triazol-3-yl)pyridin-2-yl)imidazolidin-2-one]
95	CC(C)n1cnnc1-c1cccc(N2CCN(c3cccc(S(C)(=O)=O)c3)C2=O)n1 [Example 1009, 1-(6-(4-isopropyl-4H-1,2,4-triazol-3-yl)pyridin-2-yl)-3-(3-(methylsulfonyl)phenyl)imidazolidin-2-one]
< 1000	CC(C)n1cnnc1-c1cccc(N2CCN(c3cccc(-c4cnn(C)c4)c3)C2=O)n1 [Example 1012, 1-(6-(4-isopropyl-4H-1,2,4-triazol-3-yl)pyridin-2-yl)-3-(3-(1-methyl-1H-pyrazol-4-yl)phenyl)imidazolidin-2-one]
> 1000	CC(C)n1cnnc1-c1cccc(N2CCN(c3cccc(-c4ccc(C(N)=O)cc4)c3)C2=O)n1 [Example 1015, 3′-(3-(6-(4-isopropyl-4H-1,2,4-triazol-3-yl)pyridin-2-yl)-2-oxoimidazolidin-1-yl)-[1,1′-biphenyl]-4-carboxamide]
> 1000	CC(C)n1cnnc1-c1cccc(N2CCN(c3cccc(-c4ccc(C#N)cc4)c3)C2=O)n1 [Example 1016, 3′-(3-(6-(4-isopropyl-4H-1,2,4-triazol-3-yl)pyridin-2-yl)-2-oxoimidazolidin-1-yl)-[1,1′-biphenyl]-4-carbonitrile]
> 1000	CC(C)n1cnnc1-c1cccc(N2CCN(c3cccc(-c4ccc(C(F)(F)F)cc4)c3)C2=O)n1 [Example 1017, 1-(6-(4-isopropyl-4H-1,2,4-triazol-3-yl)pyridin-2-yl)-3-(4′-(trifluoromethyl)-[1,1′-biphenyl]-3-yl)imidazolidin-2-one]
> 100	COc1cc(C)c(-c2ccc(S(C)(=O)=O)cc2)cc1N1CCN(c2cccc(-c3nncn3C(C)C)n2)C1=O [Example 1026, 1-(6-(4-isopropyl-4H-1,2,4-triazol-3-yl)pyridin-2-yl)-3-(4-methoxy-6-methyl-4′-(methylsulfonyl)-[1,1′-biphenyl]-3-yl)imidazolidin-2-one]
> 1000	CC(C)n1cnnc1-c1cccc(N2CCN(S(C)(=O)=O)C2=O)n1 [Example 1028, 1-(6-(4-isopropyl-4H-1,2,4-triazol-3-yl)pyridin-2-yl)-3-(methylsulfonyl)imidazolidin-2-one]
> 1000	CC(C)n1cnnc1-c1cccc(N2CCN(c3ccc(O)cc3)C2=O)n1 [Example 1030, 1-(4-hydroxyphenyl)-3-(6-(4-isopropyl-4H-1,2,4-triazol-3-yl)pyridin-2-yl)imidazolidin-2-one]
> 1000	COc1cc(C)c(S(C)(=O)=O)cc1N1CCN(c2cccc(-c3nncn3C(C)C)n2)C1=O [Example 1031, 1-(6-(4-isopropyl-4H-1,2,4-triazol-3-yl)pyridin-2-yl)-3-(2-methoxy-4-methyl-5-(methylsulfonyl)phenyl)imidazolidin-2-one]
> 100	CC(C)n1cnnc1-c1cccc(N2CCN(c3ccc(C(F)(F)F)cc3)C2=O)n1 [Example 1033, 1-(4-(trifluoromethyl)phenyl)-3-(6-(4-isopropyl-4H-1,2,4-triazol-3-yl)pyridin-2-yl)imidazolidin-2-one]

IC50 [nM]	Structure (SMILES)
> 100	Cc1cc(S(C)(=O)=O)ccc1N1CCN(c2cccc(-c3nncn3C(C)C)n2)C1=O [Example 1042, 1-(6-(4-isopropyl-4H-1,2,4-triazol-3-yl)pyridin-2-yl)-3-(2-methyl-4-(methylsulfonyl)phenyl)imidazolidin-2-one]
> 100	CC(C)n1cnnc1-c1cccc(N2CCN(c3ccc4nc(NC5CC5)sc4c3)C2=O)n1 [Example 1046, N-cyclopropyl-6-(3-(6-(4-isopropyl-4H-1,2,4-triazol-3-yl)pyridin-2-yl)-2-oxoimidazolidin-1-yl)benzo[d]thiazol-2-aminium 2,2,2-trifluoroacetate]
> 100	CC(C)n1cnnc1-c1cccc(N2CCN(c3ccc(S(C)(=O)=O)c(N4CCCC4)c3)C2=O)n1 [Example 1058, 1-(6-(4-isopropyl-4H-1,2,4-triazol-3-yl)pyridin-2-yl)-3-(4-(methylsulfonyl)-3-(pyrrolidin-1-yl)phenyl)imidazolidin-2-one]
< 100	CC(C)n1cnnc1-c1cccc(N2CCN(c3ccc(F)c(C4CC4)c3)C2=O)n1 [Example 1060, 1-(3-cyclopropyl-4-fluorophenyl)-3-(6-(4-isopropyl-4H-1,2,4-triazol-3-yl)pyridin-2-yl)imidazolidin-2-one]
> 1000	CC(C)c1cc(N2CCN(c3cccc(-c4nncn4C(C)C)n3)C2=O)ccc1S(C)(=O)=O [Example 1062, 1-(3-isopropyl-4-(methylsulfonyl)phenyl)-3-(6-(4-isopropyl-4H-1,2,4-triazol-3-yl)pyridin-2-yl)imidazolidin-2-one]
> 100	CC(C)n1cnnc1-c1ccc(N2CCN(c3ccc(S(C)(=O)=O)cc3)C2=O)nc1 [Example 1064, 1-(5-(4-isopropyl-4H-1,2,4-triazol-3-yl)pyridin-2-yl)-3-(4-(methylsulfonyl)phenyl)imidazolidin-2-one]
> 1000	CC(C)n1cnnc1-c1cccc(N2CCN(c3ccc(S(C)(=O)=O)cc3)C2=O)n1 [Example 1065, 1-(6-(4-isopropyl-4H-1,2,4-triazol-3-yl)pyridin-2-yl)-3-(4-(methylsulfonyl)phenyl)imidazolidin-2-one]
< 100	CC(C)n1cnnc1-c1cccc(N2CCN(c3ccc(N4CCC(C)(C)CC4)cc3)C2=O)n1 [Example 1070, 1-(6-(4-isopropyl-4H-1,2,4-triazol-3-yl)pyridin-2-yl)-3-(4-(4,4-dimethylpiperidin-1-yl)phenyl)imidazolidin-2-one]
> 100	CC(C)n1cnnc1-c1cccc(N2CCN(c3ccc(N4CCC(O)CC4)nc3)C2=O)n1 [Example 1072, 1-(6-(4-hydroxypiperidin-1-yl)pyridin-3-yl)-3-(6-(4-isopropyl-4H-1,2,4-triazol-3-yl)pyridin-2-yl)imidazolidin-2-one]
< 100	Cc1cc(N2CCN(c3cccc(-c4nncn4C(C)C)n3)C2=O)ccc1N1CCOCC1 [Example 1079, 1-(6-(4-isopropyl-4H-1,2,4-triazol-3-yl)pyridin-2-yl)-3-(3-methyl-4-morpholinophenyl)imidazolidin-2-one]
< 100	CC(C)n1cnnc1-c1cccc(N2CCN(c3ccc(N4[C@H](C)COC[C@H]4C)cc3)C2=O)n1 [Example 1086, 1-(6-(4-isopropyl-4H-1,2,4-triazol-3-yl)pyridin-2-yl)-3-(4-((3R,5R)-3,5-dimethylmorpholino)phenyl)imidazolidin-2-one]
< 100	CC(C)n1cnnc1-c1cccc(N2CCN(c3ccc(N4CC(O)(C(C)C)C4)cc3)C2=O)n1 [Example 1089, 1-(4-(3-hydroxy-3-isopropylazetidin-1-yl)phenyl)-3-(6-(4-isopropyl-4H-1,2,4-triazol-3-yl)pyridin-2-yl)imidazolidin-2-one]
< 100	CC(C)n1cnnc1-c1cccc(N2CCN(C)C2=O)n1 [Example 1099, 1-(6-(4-isopropyl-4H-1,2,4-triazol-3-yl)pyridin-2-yl)-3-methylimidazolidin-2-one]
< 100	CC(C)n1cnnc1-c1cccc(N2CCN(c3ccc(N4CCCC4)cc3)C2=O)n1 [Example 1100, 1-(6-(4-isopropyl-4H-1,2,4-triazol-3-yl)pyridin-2-yl)-3-(4-(pyrrolidin-1-yl)phenyl)imidazolidin-2-one]
< 100	CC(C)n1cnnc1-c1cccc(N2CCN(c3cnc(S(C)(=O)=O)nc3)C2=O)n1 [Example 1102, 1-(6-(4-isopropyl-4H-1,2,4-triazol-3-yl)pyridin-2-yl)-3-(2-(methylsulfonyl)pyrimidin-5-yl)imidazolidin-2-one]
< 100	CC(c1ccc(N2CCOCC2)cc1)N1CCN(c2cccc(-c3nncn3C(C)C)n2)C1=O (centres unmarked) [Example 1111, 1-(6-(4-isopropyl-4H-1,2,4-triazol-3-yl)pyridin-2-yl)-3-(1-(4-morpholinophenyl)ethyl)imidazolidin-2-one]
